Data from ChEMBL document CHEMBL4616595, “Targeted suppression of metastasis regulatory transcription factor SOX2 in various cancer cell lines using a sequence-specific designer pyrrole-imidazole polyamide” (Bioorg Med Chem, 2020).
Activity calls are given as the source filed them. The calls are words filed in the database; no cut-off is given here.

Experiments:
SOX2 promoter DNA [1] = test: Binding affinity to SOX2 promoter 5'-CTTTGTT-3' DNA in human SW620 cells assessed as down regulation of CDC42 mRNA expression incubated for 48 hrs by qRT-PCR analysis; type: cell-based; conditions: SW-620
SOX2 promoter DNA [2] = test: Binding affinity to SOX2 promoter 5'-CTTTGTT-3' DNA in human U2OS cells assessed as reduction in SOX2 mRNA expression incubated for 48 hrs by qRT-PCR analysis; type: cell-based
SOX2 promoter DNA [3] = test: Binding affinity to SOX2 promoter 5'-CTTTGTT-3' DNA in human SW620 cells assessed as downregulation of SNAIL2 mRNA expression at 2 uM incubated for 48 hrs by qRT-PCR analysis; type: cell-based; conditions: SW-620
SOX2 promoter DNA [4] = test: Binding affinity to SOX2 promoter 5'-CTTTGTT-3' DNA in human SW620 cells assessed as down regulation of CDH2 gene expression at 2 uM incubated for 48 hrs by Cy3-labelled cRNA-based microarray analysis; type: cell-based; conditions: SW-620
U2OS [5] = test: Cell cycle arrest in human U2OS cells assessed as reduction in accumulation at S phase at 2 uM to 5 uM after 48 hrs by propidium iodide staining based flow cytometry analysis; type: functional
SOX2 promoter DNA [6] = test: Binding affinity to SOX2 promoter 5'-CTTTGTT-3' DNA in human SW620 cells assessed as reduction in SOX2 protein level by measuring SOX2 level at 2 uM incubated for 48 hrs by immunostaining based FACS analysis (reference value: 55.9%); type: cell-based; set-up: scale not given: the % may be the effect or the level left; conditions: SW-620
SOX2 promoter DNA [7] = test: Binding affinity to SOX2 promoter 5'-CTTTGTT-3' DNA in human MKN45 cells assessed as reduction in SOX2 mRNA expression incubated for 48 hrs by qRT-PCR analysis; type: cell-based; conditions: MKN-45
SOX2 promoter DNA [8] = test: Binding affinity to SOX2 promoter 5'-CTTTGTT-3' DNA in human SW620 cells assessed as reduction in SOX2 mRNA expression incubated for 48 hrs by qRT-PCR analysis; type: cell-based; conditions: SW-620
SOX2 promoter DNA [9] = test: Binding affinity to SOX2 promoter 5'-CTTTGTT-3' DNA in human SW620 cells assessed as down regulation of Cyclin D1 gene expression at 2 uM incubated for 48 hrs by Cy3-labelled cRNA-based microarray analysis; type: cell-based; conditions: SW-620
SOX2 promoter DNA [10] = test: Binding affinity to SOX2 promoter 5'-CTTTGTT-3' DNA in human SW620 cells assessed as down regulation of Cyclin D1 mRNA expression at 2 uM incubated for 48 hrs by qRT-PCR analysis; type: cell-based; conditions: SW-620
SOX2 promoter DNA [11] = test: Binding affinity to SOX2 promoter 5'-CTTTGTT-3' DNA in human SW620 cells assessed as down regulation of GLI3 gene expression at 2 uM incubated for 48 hrs by Cy3-labelled cRNA-based microarray analysis; type: cell-based; conditions: SW-620
SOX2 promoter DNA [12] = test: Binding affinity to SOX2 promoter 5'-CTTTGTT-3' DNA in human ES2 cells assessed as reduction in SOX2 mRNA expression incubated for 48 hrs by qRT-PCR analysis; type: cell-based
SOX2 promoter DNA [13] = test: Binding affinity to SOX2 promoter 5'-CTTTGTT-3' DNA in human SW620 cells assessed as down regulation of stemness associated PTCH1 mRNA expression at 2 uM incubated for 48 hrs by qRT-PCR analysis; type: cell-based; conditions: SW-620
MKN-45 = test: Cell cycle arrest in human MKN45 cells assessed as reduction in accumulation at G2/M phase at 2 uM to 5 uM after 48 hrs by propidium iodide staining based flow cytometry analysis; type: functional
U2OS [14] = test: Antiproliferative activity against human U2OS cells assessed as inhibition of cell proliferation incubated for 48 hrs by [3H]thymidine incorporation based scintillation counting method; type: functional

## CC(=O)Nc1cc(C(=O)Nc2cc(C(=O)Nc3cc(C(=O)NCCC(=O)Nc4cn(C)c(C(=O)Nc5cc(C(=O)NCCCC(=O)Nc6cc(C(=O)Nc7cc(C(=O)NCCC(=O)Nc8cc(C(=O)Nc9cc(C(=O)Nc%10cn(C)c(C(=O)NCCCN(C)C)n%10)n(C)c9)n(C)c8)n(C)c7)n(C)c6)n(C)c5)n4)n(C)c3)n(C)c2)n(C)c1
SOX2 promoter DNA [1]
  Activity: Active
SOX2 promoter DNA [2]
  Activity: Active
SOX2 promoter DNA [3]
  Activity: Active
SOX2 promoter DNA [4]
  Activity: Active
U2OS [5]
  Activity: Active
SOX2 promoter DNA [6]
  Activity: 37.4%
SOX2 promoter DNA [7]
  Activity: Active
SOX2 promoter DNA [8]
  Activity: Active
SOX2 promoter DNA [9]
  Activity: Active
SOX2 promoter DNA [10]
  Activity: Active
SOX2 promoter DNA [11]
  Activity: Active
SOX2 promoter DNA [12]
  Activity: Active
SOX2 promoter DNA [13]
  Activity: Active
MKN-45
  Activity: Active
U2OS [14]
  inhibition: Dose-dependent effect
